Results reported in publication PMC4639830, “Inhibition of DYRK1A and GSK3B induces human β-cell proliferation” (Nature Communications, 2015).

How the values were obtained:
Assay in all cases: Kinase profiling
Format in all cases: biochemical
[1] = biological target: T1, LCK (Homo sapiens, UniProt P06239); settings: Conc 1000 nM; read-out: Percent inhibition, LCK
T1 construct: purchased Ambit (KINOMEscan)
From the text: (§1) ; Fig. 5a; Supplementary Table 1). We focused on Dyrk1a because other kinases inhibited by aminopyrazine compounds were not highly expressed in β-cells and because Dyrk1a was known to inhibit the NFAT pathway that was previously implicated in β-cell proliferation. We used molecular modelling to dock the aminopyrazine compounds into the published structure of Dyrk1a (protein databank accession code 2vx3.pdb; Fig. 5b).

[2] = biological target: T2, AURORA-B (Homo sapiens, UniProt Q96GD4); settings: Conc 1000 nM; read-out: Percent inhibition, AURORA-B
T2 construct: purchased Ambit KINOMEscan
T2 sequence (Q96GD4 whole entry): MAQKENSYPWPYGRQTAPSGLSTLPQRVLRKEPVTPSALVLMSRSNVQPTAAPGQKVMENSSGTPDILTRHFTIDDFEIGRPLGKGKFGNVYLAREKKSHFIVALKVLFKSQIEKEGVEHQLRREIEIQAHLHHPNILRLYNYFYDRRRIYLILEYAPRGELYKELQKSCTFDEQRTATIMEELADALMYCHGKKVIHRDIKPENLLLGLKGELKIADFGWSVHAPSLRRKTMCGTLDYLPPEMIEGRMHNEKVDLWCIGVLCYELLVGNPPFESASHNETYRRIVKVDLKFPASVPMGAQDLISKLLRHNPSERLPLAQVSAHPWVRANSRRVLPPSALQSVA
From the text: as §1

[3] = biological target: T3, AKT3 (Homo sapiens, UniProt Q9Y243); settings: Conc 1000 nM; read-out: Percent inhibition, AKT3
T3 construct: purchased Ambit KINOMEscan
From the text: as §1

[4] = biological target: T4, JAK2 (Homo sapiens, UniProt O60674); settings: read-out: Percent inhibition, JAK2; for inhibition at 1 µM: Conc 1000 nM
T4 construct: purchased Ambit KINOMEscan
T4 sequence (O60674 whole entry): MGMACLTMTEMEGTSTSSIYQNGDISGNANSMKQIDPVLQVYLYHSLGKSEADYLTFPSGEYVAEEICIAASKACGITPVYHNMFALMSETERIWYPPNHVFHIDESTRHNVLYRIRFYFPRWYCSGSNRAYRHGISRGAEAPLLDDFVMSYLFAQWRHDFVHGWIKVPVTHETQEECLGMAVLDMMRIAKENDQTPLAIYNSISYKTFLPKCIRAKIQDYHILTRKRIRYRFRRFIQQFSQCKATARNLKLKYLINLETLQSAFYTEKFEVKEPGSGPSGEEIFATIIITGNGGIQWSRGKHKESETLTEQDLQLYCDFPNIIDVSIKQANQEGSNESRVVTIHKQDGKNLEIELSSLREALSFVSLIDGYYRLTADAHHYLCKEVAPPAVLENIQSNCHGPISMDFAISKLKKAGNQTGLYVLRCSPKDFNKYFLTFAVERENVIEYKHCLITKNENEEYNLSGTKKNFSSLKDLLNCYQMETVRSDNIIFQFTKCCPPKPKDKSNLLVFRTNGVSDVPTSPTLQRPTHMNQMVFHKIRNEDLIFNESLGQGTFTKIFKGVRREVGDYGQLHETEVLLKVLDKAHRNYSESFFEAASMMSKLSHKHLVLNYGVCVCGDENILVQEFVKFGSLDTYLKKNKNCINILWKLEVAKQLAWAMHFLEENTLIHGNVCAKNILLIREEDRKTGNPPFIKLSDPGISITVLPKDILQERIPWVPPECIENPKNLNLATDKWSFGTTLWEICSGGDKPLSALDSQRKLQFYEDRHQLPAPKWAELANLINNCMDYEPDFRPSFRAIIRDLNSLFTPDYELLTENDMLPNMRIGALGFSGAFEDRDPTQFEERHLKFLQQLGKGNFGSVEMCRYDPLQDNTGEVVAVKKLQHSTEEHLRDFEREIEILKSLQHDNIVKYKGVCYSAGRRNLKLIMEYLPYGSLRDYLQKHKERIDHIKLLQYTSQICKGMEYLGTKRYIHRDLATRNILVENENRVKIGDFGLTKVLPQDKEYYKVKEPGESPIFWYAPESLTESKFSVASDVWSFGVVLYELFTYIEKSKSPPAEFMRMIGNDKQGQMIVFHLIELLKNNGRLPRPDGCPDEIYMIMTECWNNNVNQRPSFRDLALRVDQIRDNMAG
From the text: as §1

[5] = biological target: T5, FMS (CSF1R) (Homo sapiens, UniProt P07333); settings: Conc 1000 nM; read-out: Percent inhibition, FMS (CSF1R)
T5 construct: purchased Ambit KINOMEscan
From the text: as §1

[6] = biological target: T6, CHEK1 (Homo sapiens, UniProt O14757); settings: Conc 1000 nM; read-out: Percent inhibition, CHEK1
T6 construct: purchased Ambit KINOMEscan
From the text: as §1

[7] = biological target: T7, p38alpha (MAPK14) (Homo sapiens, UniProt Q16539); settings: Conc 1000 nM; read-out: Percent inhibition, p38alpha (MAPK14)
T7 construct: purchased Ambit (KINOMEscan)
From the text: as §1

[8] = biological target: T8, TRKA (NTRK1) (Homo sapiens, UniProt P04629); settings: read-out: Percent inhibition, TRKA (NTRK1); for inhibition at 1 µM: Conc 1000 nM
T8 construct: purchased Ambit (KINOMEscan)
T8 sequence (P04629 33-796): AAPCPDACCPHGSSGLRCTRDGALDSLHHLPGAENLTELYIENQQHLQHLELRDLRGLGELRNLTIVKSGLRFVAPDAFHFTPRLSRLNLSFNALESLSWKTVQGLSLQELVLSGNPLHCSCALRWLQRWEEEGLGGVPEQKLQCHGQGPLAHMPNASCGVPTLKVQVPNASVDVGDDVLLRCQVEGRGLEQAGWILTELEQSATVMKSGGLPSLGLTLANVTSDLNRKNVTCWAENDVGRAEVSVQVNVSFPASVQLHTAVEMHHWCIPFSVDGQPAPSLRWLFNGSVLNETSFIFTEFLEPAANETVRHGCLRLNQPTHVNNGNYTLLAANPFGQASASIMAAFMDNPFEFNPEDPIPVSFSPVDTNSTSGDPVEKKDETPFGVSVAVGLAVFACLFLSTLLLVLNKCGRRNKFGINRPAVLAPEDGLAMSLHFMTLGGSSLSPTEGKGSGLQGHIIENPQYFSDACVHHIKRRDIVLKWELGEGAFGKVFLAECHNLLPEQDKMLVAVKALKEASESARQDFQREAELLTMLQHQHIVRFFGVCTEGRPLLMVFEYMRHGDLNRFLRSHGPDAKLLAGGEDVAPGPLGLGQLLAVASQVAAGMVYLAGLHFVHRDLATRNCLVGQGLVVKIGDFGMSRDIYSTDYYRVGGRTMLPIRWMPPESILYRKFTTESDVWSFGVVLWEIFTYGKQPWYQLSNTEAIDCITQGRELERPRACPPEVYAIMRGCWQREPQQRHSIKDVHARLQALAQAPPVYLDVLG
From the text: as §1

[9] = biological target: T9, PKCalpha (Homo sapiens, UniProt P17252); settings: read-out: Percent inhibition, PKCalpha; for inhibition at 1 µM: Conc 1000 nM
T9 construct: purchased Ambit (KINOMEscan)
From the text: as §1

[10] = biological target: T10, p38delta (MAPK13) (Homo sapiens, UniProt O15264); settings: Conc 1000 nM; read-out: Percent inhibition, p38delta (MAPK13)
T10 construct: purchased Ambit (KINOMEscan)
From the text: as §1

[11] = biological target: T11, SGK1 (Homo sapiens, UniProt O00141); settings: Conc 1000 nM; read-out: Percent inhibition, SGK1
T11 construct: purchased Ambit (KINOMEscan)
From the text: as §1

[12] = biological target: T12, ALK (Homo sapiens, UniProt Q9UM73); settings: read-out: Percent inhibition, ALK; for inhibition at 1 µM: Conc 1000 nM
T12 construct: purchased Ambit KINOMEscan
T12 sequence (Q9UM73 19-1620): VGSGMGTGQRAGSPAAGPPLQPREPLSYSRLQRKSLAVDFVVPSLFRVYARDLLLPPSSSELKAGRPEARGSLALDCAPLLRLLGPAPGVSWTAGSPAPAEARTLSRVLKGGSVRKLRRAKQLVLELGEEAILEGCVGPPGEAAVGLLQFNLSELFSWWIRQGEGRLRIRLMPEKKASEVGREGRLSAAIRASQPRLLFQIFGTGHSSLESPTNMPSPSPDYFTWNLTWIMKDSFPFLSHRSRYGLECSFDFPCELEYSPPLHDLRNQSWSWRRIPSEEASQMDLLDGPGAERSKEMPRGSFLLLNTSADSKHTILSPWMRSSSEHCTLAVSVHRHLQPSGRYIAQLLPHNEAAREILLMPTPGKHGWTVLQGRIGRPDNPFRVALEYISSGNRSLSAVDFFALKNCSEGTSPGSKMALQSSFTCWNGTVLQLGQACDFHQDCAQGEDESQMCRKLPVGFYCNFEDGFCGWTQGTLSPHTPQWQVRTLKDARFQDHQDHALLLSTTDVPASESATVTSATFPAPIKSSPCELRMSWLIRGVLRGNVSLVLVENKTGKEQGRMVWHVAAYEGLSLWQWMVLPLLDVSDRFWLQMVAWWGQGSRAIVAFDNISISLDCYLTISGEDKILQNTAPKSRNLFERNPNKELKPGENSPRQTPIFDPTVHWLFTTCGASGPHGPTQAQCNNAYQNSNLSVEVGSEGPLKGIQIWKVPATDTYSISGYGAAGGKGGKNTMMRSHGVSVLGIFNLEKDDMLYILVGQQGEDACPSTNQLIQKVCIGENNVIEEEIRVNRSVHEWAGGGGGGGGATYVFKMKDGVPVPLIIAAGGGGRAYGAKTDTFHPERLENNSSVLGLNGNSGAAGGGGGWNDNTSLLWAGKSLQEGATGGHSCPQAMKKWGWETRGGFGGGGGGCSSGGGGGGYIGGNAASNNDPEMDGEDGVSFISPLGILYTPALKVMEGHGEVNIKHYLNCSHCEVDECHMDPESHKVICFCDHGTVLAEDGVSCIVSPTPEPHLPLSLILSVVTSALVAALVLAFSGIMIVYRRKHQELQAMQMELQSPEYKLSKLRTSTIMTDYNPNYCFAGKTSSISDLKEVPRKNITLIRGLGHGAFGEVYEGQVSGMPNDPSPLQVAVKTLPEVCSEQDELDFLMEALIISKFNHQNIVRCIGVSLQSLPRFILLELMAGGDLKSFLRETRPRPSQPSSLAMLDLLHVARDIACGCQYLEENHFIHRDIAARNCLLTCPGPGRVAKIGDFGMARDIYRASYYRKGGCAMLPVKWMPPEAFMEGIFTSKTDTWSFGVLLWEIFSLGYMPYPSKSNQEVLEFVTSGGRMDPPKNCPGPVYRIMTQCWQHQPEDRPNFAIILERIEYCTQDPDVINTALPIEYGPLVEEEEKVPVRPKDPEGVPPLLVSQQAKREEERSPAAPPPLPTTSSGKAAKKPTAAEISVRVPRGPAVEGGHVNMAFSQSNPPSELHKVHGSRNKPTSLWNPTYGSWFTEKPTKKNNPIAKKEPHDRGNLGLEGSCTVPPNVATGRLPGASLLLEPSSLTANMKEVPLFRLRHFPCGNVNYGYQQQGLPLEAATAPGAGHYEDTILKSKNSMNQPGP
From the text: as §1

[13] = biological target: T13, EphB3 (Homo sapiens, UniProt P54753); settings: Conc 1000 nM; read-out: Percent inhibition, EphB3
T13 construct: purchased Ambit KINOMEscan
From the text: as §1

[14] = biological target: T14, c-Kit (Homo sapiens, UniProt P10721); settings: Conc 1000 nM; read-out: Percent inhibition, c-Kit
T14 construct: purchased Ambit KINOMEscan
From the text: as §1

[15] = biological target: T15, TTK (Homo sapiens, UniProt P33981); settings: Conc 1000 nM; read-out: Percent inhibition, TTK
T15 construct: purchased Ambit (KINOMEscan)
From the text: as §1

[16] = biological target: T16, cRAF (Homo sapiens, UniProt P04049); settings: Conc 1000 nM; read-out: Percent inhibition, cRAF
T16 construct: purchased Ambit KINOMEscan
From the text: as §1

[17] = biological target: T17, AURORA-A (Homo sapiens, UniProt O14965); settings: read-out: Percent inhibition, AURORA-A; for inhibition at 1 µM: Conc 1000 nM
T17 construct: purchased Ambit KINOMEscan
T17 sequence (O14965 1-403): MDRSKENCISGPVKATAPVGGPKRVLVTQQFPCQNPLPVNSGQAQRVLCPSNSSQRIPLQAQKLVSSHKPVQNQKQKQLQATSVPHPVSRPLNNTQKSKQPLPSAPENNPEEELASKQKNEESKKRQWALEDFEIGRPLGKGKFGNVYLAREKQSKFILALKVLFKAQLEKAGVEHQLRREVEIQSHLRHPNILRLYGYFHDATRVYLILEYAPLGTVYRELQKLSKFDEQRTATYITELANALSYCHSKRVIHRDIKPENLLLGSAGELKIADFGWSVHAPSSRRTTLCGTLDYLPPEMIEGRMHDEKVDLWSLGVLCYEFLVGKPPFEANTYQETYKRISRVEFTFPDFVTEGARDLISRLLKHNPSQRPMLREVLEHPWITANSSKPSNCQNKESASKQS
From the text: as §1

[18] = biological target: T18, PI3Ka (Homo sapiens, UniProt P42336); settings: Conc 1000 nM; read-out: Percent inhibition, PI3Ka
T18 construct: purchased Ambit (KINOMEscan)
From the text: as §1

[19] = biological target: T19, IRAK4 (Homo sapiens, UniProt Q9NWZ3); settings: Conc 1000 nM; read-out: Percent inhibition, IRAK4
T19 construct: purchased Ambit KINOMEscan
From the text: as §1

[20] = biological target: T20, p70S6K1 (Homo sapiens, UniProt P23443); settings: Conc 1000 nM; read-out: Percent inhibition, p70S6K1
T20 construct: purchased Ambit (KINOMEscan)
From the text: as §1

[21] = biological target: T21, CK1a (Homo sapiens, UniProt P48729); settings: Conc 1000 nM; read-out: Percent inhibition, CK1a
T21 construct: purchased Ambit KINOMEscan
T21 sequence (P48729 whole entry): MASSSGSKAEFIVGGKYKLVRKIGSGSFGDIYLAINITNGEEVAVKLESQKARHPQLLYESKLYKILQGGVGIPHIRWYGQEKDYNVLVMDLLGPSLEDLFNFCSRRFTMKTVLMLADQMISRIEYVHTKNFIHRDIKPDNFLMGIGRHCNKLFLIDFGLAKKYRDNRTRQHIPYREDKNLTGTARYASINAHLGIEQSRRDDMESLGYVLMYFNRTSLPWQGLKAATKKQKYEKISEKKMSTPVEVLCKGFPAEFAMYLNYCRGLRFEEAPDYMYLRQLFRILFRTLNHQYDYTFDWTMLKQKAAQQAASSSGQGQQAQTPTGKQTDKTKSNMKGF
From the text: as §1

[22] = biological target: T22, CSK (Homo sapiens, UniProt P41240); settings: Conc 1000 nM; read-out: Percent inhibition, CSK
T22 construct: purchased Ambit KINOMEscan
From the text: as §1

Row | SMILES | inhibition at 1 µM [1] [%] | inhibition at 1 µM [2] [%] | inhibition at 1 µM [3] [%] | inhibition at 1 µM [4] [%] | inhibition at 1 µM [5] [%] | inhibition at 1 µM [6] [%] | inhibition at 1 µM [7] [%] | inhibition at 1 µM [8] [%] | inhibition at 1 µM [9] [%] | inhibition at 1 µM [10] [%] | inhibition at 1 µM [11] [%] | inhibition at 1 µM [12] [%] | inhibition at 1 µM [13] [%] | inhibition at 1 µM [14] [%] | inhibition at 1 µM [15] [%] | inhibition at 1 µM [16] [%] | inhibition at 1 µM [17] [%] | inhibition at 1 µM [18] [%] | inhibition at 1 µM [19] [%] | inhibition at 1 µM [20] [%] | further results
1 | Nc1ncc(-c2ccccc2)nc1C(=O)Nc1cnccc1N1CCC(C(=O)O)CC1 [GNF7156] | 31 | 52 | 7 | 92 | 78 | 12 | 9 | 92 | 96 | 10 | 39 | 71 | 12 | 49 | 29 | 17 | 95 | 2 | 25 | 50 | inhibition at 1 µM [21]: 42%; inhibition at 1 µM [22]: 29%
2 | CC(C)Oc1ccc(F)c(-c2cnc(N)c(C(=O)Nc3cnccc3N3CCC[C@@H](C(=O)O)C3)n2)c1 [GNF4877] | 43 | 49 | 25 | 95 | 72 | 43 | 6 | 80 | 97 | 13 | 67 | 96 | 28 | 77 | 51 | 18 | 84 | 31 | 52 | 75 | inhibition at 0.2 µM ([4]; Conc 200 nM): 2%; inhibition at 0.2 µM ([8]; Conc 200 nM): 19%; inhibition at 0.2 µM ([9]; Conc 200 nM): 0%; inhibition at 0.2 µM ([12]; Conc 200 nM): 35%; inhibition at 0.2 µM ([17]; Conc 200 nM): 0%; inhibition at 1 µM [21]: 89%; inhibition at 1 µM [22]: 54%
